Legend:
[1] = test system: draining lymph nodes and lymphatic vessels; assay: 3D dynamic mammo-lymphangiograms after sequential injection of GPDM and PAMAM-G6 into the mammary gland; format: in vivo, athymic nu/nu mice; settings: 0.15 μmol Gd into mammary gland; GPDM imaged at 12, 24, 36 min, then PAMAM-G6 injected 36 minutes following GPDM
Protocol: Mice were anesthetized with 1.15 mg sodium pentobarbital (Dainabot, Osaka, Japan), and then injected with 0.15-0.24 μmol Gd/5-8 μL of the PAMAM-G6 contrast agent into normal mammary glands or mammary tissue surrounding a tumor (peritumorally). Dynamic micro-MR images were obtained using a 1.5-Tesla superconductive magnet unit (Signa LX, General Electric Medical System, Milwaukee, Wis.) with a birdcage type coil of 3 cm diameter fixed by a custom made coil holder. [Single and double “breast coils” used for imaging breasts in humans are commercially available, for example, from GE Medical Systems (Milwaukee, Wis.) and are routinely available in outpatient MRI centers] The mice were wrapped with gauze to stabilize their body temperature and were placed at the center of the coils. Athymic nu/nu mice (n=4) were anesthetized and injected with 0.15 μmol Gd of GPDM into the mammary gland, and images were taken 12, 24, and 36 min after injection. Following these three images, these mice were subsequently injected with 0.15 μmol Gd of PAMAM-G6 contrast agent in the mammary gland, and images were taken at 12 and 24 min post-injection of the PAMAM-G6 contrast agent (at 48 and 60 min post-injection of GPDM).

deep lymphatic system = assay: Whole-body dynamic 3D-micro-MR lymphangiography of normal mice (Example 2); format: in vivo; settings: for Number of Mice in Which the Thoracic Duct was Visualized/Number of Mice Examined: Normal Mice, 0.1 μmolGd intracutaneously into four middle phalanges; for Visualization of the deep lymph nodes: normal mice, 10 to 45 min after intracutaneous injection, FIGS. 7, 8; for Axillary lymph node-to-background (muscle) signal intensity ratio, comparison between agents: T1-weighted signal, P<0.01, FIG. 9A; for Axillary lymph node-to-background (muscle) signal intensity ratio, comparison between agents / Axillary lymph node-to-liver signal intensity ratio, comparison between agents: all time points examined; for Axillary lymph node-to-liver signal intensity ratio, comparison between agents: P<0.01, FIG. 9B
Protocol: (§1) The mice were anesthetized with 1.15 mg sodium pentobarbital (Dainabot, Osaka, Japan) i.p., and then injected intracutaneously with 0.1 μmolGd of PAMAM-G8, DAB-G5, PAMAM-G4, Gadomer-17, or GPDM into four middle phalanges in all four extremities. Dynamic micro-MR images were obtained using a 1.5-Tesla superconductive magnet unit (Signa LX, General Electric Medical System, Milwaukee, Wis.) with a round birdcage type coil of 3 cm diameter fixed by a custom-made coil holder. Four to eight female mice (7 weeks old, 18-21 g body weight) in each group were used and each contrast agent was prepared at least three separate times for these imaging studies. The mice were wrapped with gauze to stabilize their body temperature and were placed at the center of the coils.
(§2) A 3D-fast spoiled gradient echo [3D-fastSPGR (efgre3d package; Signa Horizon, GE); repetition time/echo time 28.5/7.9 msec; inversion time 65 msec; 31.2 kHz, flip angle 30°, four excitations; 40 slice-encoding steps; scan time 7 min 36 seconds] with chemical shift fat-suppression was used 10, 20, 30, and 45 min after injection of the contrast agents. The coronal images were reconstructed with 0.6-mm section thickness at every 0.3-mm. The FOV was 6×3 cm and the size of the matrix was 512×256. The intensities of the regions of interest (ROIs) (for example, a whole axillary lymph node, and the liver) were measured, and then the time-intensity curves analyzed. The data were expressed as the axillary lymph node-to-muscle and the axillary lymph node-to-liver ratios. The slice data were processed into 3D images using the MIP method with the same window and level (window 3500 and level 2300) (Advantage Windows, General Electric Medical System). Two board-certified radiologists separately read a set of stereo views of 3D-MRL for all studies, and estimated the visualization of the thoracic duct. After imaging, the mice were sacrificed by carbon dioxide inhalation.
Statistical analyses were performed using either Student's t-test or a one-way analysis of variance (ANOVA), with a pairwise comparison using the Bonferroni method for signal intensity curves (Statview; SAS Institute Inc., Cary, N.C.).

[2] = test system: deep lymph nodes, thoracic duct and lymphatic vessels; assay: Whole-body 3D-micro-MR lymphangiography of normal mice, PAMAM-G8 versus GPDM (Example 3); format: in vivo; settings: intracutaneous injection, 0.05 mmolGd/kg (FIG. 13)
Protocol: as §1, §2
In this example, the PAMAM-G8 contrast agent is compared to GPDM. PAMAM-G8 was prepared as described in Example 2, and GPDM was purchased (Schering AG, Berlin, Germany). Animal models, administration of the contrast agents, and 3D-micro-MRL were as described in Example 2.

[3] = test system: lymph nodes and lymphatic vessels of IL-15 transgenic mice; assay: 3D-micro-MRL in IL-15 transgenic lymphoproliferative/neoplastic disease model; format: in vivo; settings: 45 minutes after injection, FIGS. 11, 15A
Protocol: Eight- to 10-month old IL-15 transgenic mice (on a C57BL6 background) were used as a chronic lymphoproliferative/neoplastic disease model because they manifested selective expansion of NK, CD8^+NK-T, γδIELs, and CD8 T cells in the periphery. Most of the lymph nodes collected from an aged IL-15 transgenic mouse were enlarged in size. The lesion of proliferated monoclonal lymphocytes often involved the lung and the subcutaneous lymphatic tissue.
as §1
as §2, with “The FOV was 6×3 cm and the size of the matrix was 512×256.” left out, “The slice data were processed into 3D images using the MIP method with the same window and level (window 3500 and level 2300) (Advantage Windows, General Electric Medical System).” left out, “After imaging, the mice were sacrificed by carbon dioxide inhalation.” left out

[4] = Distribution and survival properties of the dendrimer conjugates; settings: in vivo

Compound | Visualization of draining lymph nodes and lymphatic vessels (FIG. 3) [1] | Image enhancement (deep lymphatic system; 45 minutes after injection, FIG. 8B) | Number of Mice in Which the Thoracic Duct was Visualized/Number of Mice Examined (deep lymphatic system; 10 min) | Number of Mice in Which the Thoracic Duct was Visualized/Number of Mice Examined (deep lymphatic system; 20 min) | Number of Mice in Which the Thoracic Duct was Visualized/Number of Mice Examined (deep lymphatic system; 30 min) | Number of Mice in Which the Thoracic Duct was Visualized/Number of Mice Examined (deep lymphatic system; 45 min) | Visualization of the deep lymph nodes (deep lymphatic system) | Visualization of deep lymph nodes throughout the body [2] | Axillary lymph node-to-background (muscle) signal intensity ratio, comparison between agents (deep lymphatic system) | Axillary lymph node-to-liver signal intensity ratio, comparison between agents (deep lymphatic system) | Lymph node findings on 3D-micro-MRL [3] | Distribution within the lymphatic system [4] | Survival in the blood circulation and excretion [4]
CNC[C@H](O)[C@@H](O)[C@H](O)[C@H](O)CO.CNC[C@H](O)[C@@H](O)[C@H](O)[C@H](O)CO.O=C([O-])CN(CCN(CC(=O)[O-])CC(=O)O)CCN(CC(=O)[O-])CC(=O)O.[Gd+3] [GPDM, gadopentetate dimeglumine, reference compound] | not well visualized | Virtually no image enhancement | 2/5 | 0/5 | 0/5 | 0/5 | did not allow most of the lymph nodes to be visualized even at early times | but not with GPDM |  |  |  |  | 
DAB-Am-128-(Gd-1B4M)128 dendrimer conjugate [DAB-G5] |  |  | 3/5 | 2/5 | 0/5 | 0/5 |  |  | significantly higher than that obtained with either PAMAM-G8 or PAMAM-G4 | nearly equivalent, but were significantly higher than that measured with GPDM | considerable multiple lymph node swellings with central filling defects | tend to accumulate in the lymph nodes rather than the vessels | 
Gadomer-17 [reference compound] |  |  | 2/5 | 2/5 | 1/5 | 1/5 | allowed visualization of the deep lymph nodes, albeit not as clearly and brightly as the dendrimer-based agents |  | significantly higher than that acquired with GPDM | nearly equivalent, but were significantly higher than that measured with GPDM |  |  | 
PAMAM-G4D-(Gd-1B4M)64 dendrimer conjugate |  |  | 4/5 | 4/5 | 3/5 | 2/5 |  |  | significantly higher than that measured with Gadomer-17 and GPDM | significantly higher than that acquired with PAMAM-G8, DAB G-5, or Gadomer-17 |  | tend to accumulate in the lymph nodes rather than the vessels | short survival in the blood circulation due to a rapid renal excretion without significant retention in other organs
